Assay results from patent US20070148124A1, “Cellulose and acrylic based polymers and the use thereof for the treatment of infectious diseases” (priority 2004, published 2007).
Like-named read-outs stand apart in the source and are kept apart here.

Tests used:
[1] = test system: GHOST cells
[2] = test system: CXCR4 tropic (CMU06) strain of HIV-1; assay: HIV-1 infection and replication in PBMCs, RT activity; assay type: cell-based; details: seven days, CXCR4 virus
[3] = test system: CCR5 tropic (JRCSF) strain of HIV-1; assay: as above; assay type: cell-based; details: seven days, CCR5 virus
[4] = test system: dual tropic (BR/92/014) strain of HIV-1; assay: as above; assay type: cell-based; details: seven days, dual tropic virus
[5] = test system: HIV-1SKI; assay: CD4-dependent HIV transmission inhibition assay (cell-associated virus, GHOST cells); assay type: cell-based
[6] = test system: HIV-1IIIB; assay: microbe, parasite or virus in culture; assay type: cell-based
[7] = test system: HIV-1BaL; assay: Virus attachment assay; assay type: cell-based; details: Assay Virus HIV-1BaL
[8] = test system: HIV-1JR-CSF; assay: CD4-dependent HIV transmission inhibition assay (cell-associated virus, GHOST cells); assay type: cell-based
[9] = test system: MAGI-R5 or HeLa CD4 LTR β-gal cells
[10] = test system: HeLa CD4 LTR β-gal cells
[11] = in vitro; details: human
[12] = in vitro; details: human; remark: listed apart in the source
[13] = in vitro; details: human; remark: listed apart in the source
[14] = cited from earlier work
[15] = CXCR4 Virus HIV-1SKI, cell-associated
[16] = Human immunodeficiency virus 1, CXCR4 Virus HIV-1SKI, cell-associated
[17] = Human immunodeficiency virus 1, Assay Virus HIV-1JR-CSF

Compound: hydroxypropyl methylcellulose trimellitate [HPMCT]
- CC50 ([1]; pH 4): 0.38%
- CC50 ([1]; pH 5.85): 0.38%
- CC50 ([1]; pH 6.5): 0.39%

Compound: Cc1cn([C@H]2C[C@H](N=[N+]=[N-])[C@@H](CO)O2)c(=O)[nH]c1=O [AZT]
- IC50 [2]: < 0.1 nM
- IC50 [3]: 1.48 nM
- IC50 [4]: 0.27 nM

Compound: Cc1ccc(-c2ccc3c(c2)C=C(C(=O)Nc2ccc(C[N+](C)(C)C4CCOCC4)cc2)CCC3)cc1 [TAK 779]
- IC50 [5, 15]: > 10 nM
- IC90 [5, 15]: > 10 nM
- IC50 ([6]; Assay Virus HIV-1IIIB, read-out: IC50): > 200 nM
- IC90 ([6]; Assay Virus HIV-1IIIB, read-out: IC90): > 200 nM
- IC50 [7]: < 2e-06 µM
- IC90 [7]: 0.04 nM
- IC50 ([8]; Assay Virus HIV-1JR-CSF): 0.002 nM
- IC90 ([8]; Assay Virus HIV-1JR-CSF): 0.55 nM
- CC50 [1]: > 10 nM
- CC50 [9]: > 0.2 µM
- CC50 [10]: > 200 nM

Compound: c1cc(CN2CCCNCCNCCCNCC2)ccc1CN1CCCNCCNCCCNCC1 [AMD 3100]
- IC50 ([5]; Human immunodeficiency virus 1, Pre-incubation pH: Standard Assay): 10 nM
- IC50 ([5]; Human immunodeficiency virus 1, pH 4, Pre-incubation pH 4.0): 1 nM
- IC50 ([5]; Human immunodeficiency virus 1, pH 5.85, Pre-incubation pH 5.85): 6 nM
- IC50 ([5]; Human immunodeficiency virus 1, pH 6.5, Pre-incubation pH 6.5): 80 nM
- IC50 [5, 16]: 5 nM
- IC90 [5, 16]: 60 nM
- IC50 ([6]; Human immunodeficiency virus 1): 1 nM
- IC90 ([6]; Human immunodeficiency virus 1): 8 nM
- IC50 ([7]; Human immunodeficiency virus 1): 3.79 µM
- IC90 ([7]; Human immunodeficiency virus 1): > 10000 nM
- IC50 [8, 17]: > 10000 nM
- IC90 [8, 17]: > 10000 nM
- CC50 ([9]; human): > 10 µM
- CC50 at 4 h [11]: > 10 µM
- CC50 at 4 h ([11]; pH 4): 4.03 µM
- CC50 at 4 h ([11]; pH 5.85): > 10 µM
- CC50 at 4 h ([11]; pH 6.5): > 10 µM
- CC50 [12]: > 10 µM
- CC50 [13]: > 10 µM

Compound: phthalate
- pKa of the second (remaining dissociable) carboxylic acid group ([14]; moiety on the cellulose backbone): 5.28

Compound: D-mallic acid, L-mallic acid
- pKa Values (first value) ([14]; room temperature): 3.4
- pKa Values (second value) ([14]; room temperature): 5.2
